Laboratory results as given in ChEMBL document CHEMBL2429756, “Synthesis, docking, and in vitro studies of some substituted bischalcones on acid and alkaline phosphatases” (Med Chem Res, 2013).

Tests used:
Capra hircus [1] = organism: Capra hircus; assay: Inhibition of goat liver alkaline phosphatase assessed as residual activity using p-nitrophenyl phosphate as substrate at 1 mM after 30 mins relative to control
[2] = Competitive inhibition of goat liver alkaline phosphatase assessed as residual activity using p-nitrophenyl phosphate as substrate by Lineweaver-Burk plot analysis; design: species or system Capra hircus
Capra hircus [3] = organism: Capra hircus; assay: Inhibition of goat liver acid phosphatase assessed as residual activity using p-nitrophenyl phosphate as substrate at 1 mM after 30 mins relative to control
[4] = Non-competitive inhibition of goat liver alkaline phosphatase assessed as residual activity using p-nitrophenyl phosphate as substrate by Lineweaver-Burk plot analysis; design: species or system Capra hircus

Activity (Capra hircus [1]) [%]	Ki [2] [µM]	Activity (Capra hircus [3]) [%]	Ki [4] [µM]	SMILES
46.2	670	129		O=C1/C(=C/c2ccc(Cl)cc2)CCC/C1=C\c1ccc(Cl)cc1
40.2	470	113		CN(C)c1ccc(/C=C2\CCC/C(=C\c3ccc(N(C)C)cc3)C2=O)cc1
26	250	133		O=C1/C(=C/c2ccc([N+](=O)[O-])cc2)CCC/C1=C\c1ccc([N+](=O)[O-])cc1
88	4000			c1ccc([C@H]2CN3CCSC3=N2)cc1 [LEVAMISOLE]
41.2	470	121		O=C1/C(=C/c2ccccc2)CCC/C1=C\c1ccccc1 [2,6-DIBENZYLIDENECYCLOHEXANONE]
46		149	845	Cc1ccc(/C=C2\CCC/C(=C\c3ccc(C)cc3)C2=O)cc1
31.7	389	158		COc1ccc(/C=C2\CCC/C(=C\c3ccc(OC)cc3)C2=O)cc1
57.8	1090	140		O=C1/C(=C/c2ccc(F)cc2)CCC/C1=C\c1ccc(F)cc1
43.5	565	127		O=C1/C(=C/c2ccc(Br)cc2)CCC/C1=C\c1ccc(Br)cc1
30.8		129	441	O=C1/C(=C/C=C/c2ccccc2)CCC/C1=C\C=C\c1ccccc1
